The target in experiment [1] is T1, D-amino-acid oxidase (Homo sapiens, UniProt P14920). Briefly: Inhibition of human DAAO at 20 uM using D-kynurenine as substrate relative to control.
Target sequence in this assay (P14920 whole entry, looked up): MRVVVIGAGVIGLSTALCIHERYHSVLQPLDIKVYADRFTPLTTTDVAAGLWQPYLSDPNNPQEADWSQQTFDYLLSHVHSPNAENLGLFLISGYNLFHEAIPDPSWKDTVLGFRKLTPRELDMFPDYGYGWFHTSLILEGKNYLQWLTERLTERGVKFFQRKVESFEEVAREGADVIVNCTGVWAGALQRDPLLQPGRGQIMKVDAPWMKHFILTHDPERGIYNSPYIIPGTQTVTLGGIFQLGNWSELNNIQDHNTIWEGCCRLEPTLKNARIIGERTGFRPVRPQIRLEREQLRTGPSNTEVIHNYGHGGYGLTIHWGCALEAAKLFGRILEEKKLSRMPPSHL
Experiment [2] has as its target T1, D-amino-acid oxidase. Description: Inhibition of human DAAO using D-kynurenine as substrate.
Target sequence in this assay (P14920 whole entry): as the sequence (P14920 whole entry, looked up) above

Our source for the inhibition and IC50 values is ChEMBL document CHEMBL4219249, “Discovery of d-amino acid oxidase inhibitors based on virtual screening against the lid-open enzyme conformation” (Bioorg Med Chem Lett, 2018).

pIC50: −log10 of the molar value.

Turning to `O=C(O)CNC(=O)c1cc(NC(=O)c2cc(Cl)c(Cl)[nH]2)c[nH]1`, the inhibition at D-amino-acid oxidase [1] was 100%. This compound gave a pIC50 on D-amino-acid oxidase [2] of 5.28.
The compound `O=C(O)CNC(=O)c1cc(NC(=O)c2cccnc2)c[nH]1` came in with an inhibition on D-amino-acid oxidase [1] of 45%.
The same measure, in the same setting: the result for `CN(C(=O)c1cc(Br)c(Br)[nH]1)c1c[nH]c(C(=O)NCC(=O)O)c1` reads 0%; that for `CN(CC(=O)O)C(=O)c1cc(N(C)C(=O)c2cc(Br)c(Br)[nH]2)c[nH]1`, 0%; that for `O=C(O)CNC(=O)c1cc(NC(=O)c2ccc([N+](=O)[O-])[nH]2)c[nH]1`, 33%.
Still for that read-out and setting: then `CC(=O)Nc1c[nH]c(C(=O)NCC(=O)O)c1`, with 39%.
At D-amino-acid oxidase [1], `O=C(O)CNC(=O)c1cc(NC(=O)c2cc(Br)c(Br)[nH]2)c[nH]1` yielded an inhibition of 100%. Moreover, on D-amino-acid oxidase [2], the pIC50 was 6.41.
In the same order, the values of `Cc1[nH]c(C(=O)Nc2c[nH]c(C(=O)NCC(=O)O)c2)c(Cl)c1Cl` are 100% and 5.06.
The compound `O=C(O)CNC(=O)c1cc([N+](=O)[O-])c[nH]1` came in with an inhibition on D-amino-acid oxidase [1] of 35%.
On the same count and under the same terms, the result for `O=C(O)CNC(=O)c1cc(NC(=O)c2cc3ccccc3[nH]2)c[nH]1` reads 8%.
`CN(CC(=O)O)C(=O)c1cc(NC(=O)c2cc(Br)c(Br)[nH]2)c[nH]1`: the inhibition against D-amino-acid oxidase [1] turned out to be 100%. Further, the negative logarithm of the IC50 (pIC50) at D-amino-acid oxidase [2] was 6.31.
Regarding `O=C(O)CNC(=O)c1cc(NC(=O)c2cc(Br)c[nH]2)c[nH]1`, the inhibition at D-amino-acid oxidase [1] is 100%. This compound showed a pIC50 against D-amino-acid oxidase [2] of 5.17.
As for `O=C(O)CNC(=O)c1cc(NC(=O)c2ccccn2)c[nH]1`, at D-amino-acid oxidase [1], the inhibition was found to be 18%.
`Cn1cc(NC(=O)c2cc(Br)c(Br)[nH]2)cc1C(=O)NCC(=O)O`: the inhibition on D-amino-acid oxidase [1] came to 32%.
